{"source": "patent US20150342847A1", "about": "“NOVEL DERIVATIVES OF SINAPINIC ACID AND THE COSMETIC OR PHARMACEUTICAL USES THEREOF” (BASF Beauty Care Solutions France SAS, priority 2012, published 2015)", "key": {"[1]": {"test_system": "melanocytes of murine line B16", "assay": "Inhibition of melanin production in B16 melanocytes stimulated with an α-MSH derivative", "type": "cell-based", "settings": "Mus musculus, B16 cells", "method": "Determination of the percentage inhibition of melanin production by the hydroxytyrosol dihydrosinapate of the invention of formula (IIa) or the ferulic acid derivative of the prior art, by quantitative analysis of the total melanin synthesized by melanocytes of murine line B16 following application of the compound under test.\nMelanocytes (B16 cells) are cultured for 24 hours in a 96-well plate in an appropriate medium. […] After 72 hours of incubation, the culture medium is withdrawn, and total melanin is quantified by measuring the absorbance at 405 nm against a standard range of synthetic melanin from 0.78 to 100 μg/mL.\nThe results are expressed as percentage inhibition of melanin production relative to the negative control, and are presented in Table 1.\nThe inhibitory activity on melanin production of the product tested is calculated as a percentage according to the following formula:\n% inhibition=[(mean stimulated control−mean basal control)−(sample value−mean basal control)]/(mean stimulated control−mean basal control)×100\nwhere: • Mean stimulated control: mean of the values obtained with a medium supplemented with an alpha-MSH derivative • Sample value: value obtained with the compound under test • Mean basal control: Mean of the values obtained with a medium not supplemented with an alpha-MSH derivative"}, "[2]": {"biological_target": "T1, human tyrosinase (Homo sapiens, UniProt P14679)", "T1 construct": "endogenous in cells; host or cells: normal human melanocytes obtained from abdominal plasty", "T1 sequence (P14679 19-529)": "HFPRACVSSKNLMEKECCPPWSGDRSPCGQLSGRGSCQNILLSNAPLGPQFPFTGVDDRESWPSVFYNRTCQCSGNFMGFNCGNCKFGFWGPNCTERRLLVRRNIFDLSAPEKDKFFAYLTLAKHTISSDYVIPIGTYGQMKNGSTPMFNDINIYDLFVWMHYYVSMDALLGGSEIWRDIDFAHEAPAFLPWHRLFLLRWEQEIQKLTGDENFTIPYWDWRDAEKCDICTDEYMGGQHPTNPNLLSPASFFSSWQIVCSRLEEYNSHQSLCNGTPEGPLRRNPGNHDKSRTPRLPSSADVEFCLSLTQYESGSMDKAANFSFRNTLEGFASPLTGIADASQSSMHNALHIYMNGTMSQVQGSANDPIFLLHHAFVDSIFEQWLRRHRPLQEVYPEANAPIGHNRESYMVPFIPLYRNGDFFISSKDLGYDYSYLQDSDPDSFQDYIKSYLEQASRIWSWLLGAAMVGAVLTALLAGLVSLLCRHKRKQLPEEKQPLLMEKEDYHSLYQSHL", "assay": "Anti-human tyrosinase activity in normal human melanocytes (MBTH/L-Dopa, OD490)", "type": "cell-based", "settings": "normal human melanocytes, read-out: % inhibition of activity of tyrosinase +/− standard deviation", "method": "Study of the inhibition of tyrosinase by the hydroxytyrosol dihydrosinapate of the invention of formula (IIa), in comparison with the prior-art ferulic acid derivative, by quantitative analysis of the human tyrosinase activity of melanocytes cultured as a monolayer following application of the compound under test. Normal human melanocytes (obtained from abdominal plasty) are seeded in a 24-well plate at 80000 cells per well. They are cultured until confluence, and the compounds under test are applied in the culture media for 24 hours. After 24 hours, the media are removed and the melanocytes are detached by mechanical action. Extraction is carried out by thermal shock and then the supernatants are recovered and incubated with MBTH (methyl benzothiazolinone-hydrazone) (Sigma) and L-Dopa (Sigma). The optical density (OD) at 490 nm (OD490) is measured after 30 minutes of incubation, and the inhibition of tyrosinase is calculated according to the following formula: % inhibition=100−[100×(OD490 sample/level of proteins in sample)/(OD490 negative control/level of proteins in negative control)] The OD490 is therefore related to the level of protein, which is the measurement in each culture well. […] The results are presented as % inhibition of activity of tyrosinase, in Table 2."}, "[3]": {"test_system": "keratinocytes", "assay": "Cytotoxicity, MTT cell viability on keratinocytes", "type": "cell-based", "settings": "0.25%, positive cytotoxicity control", "method": "(§1) Study of cell viability following application of the hydroxytyrosol dihydrosinapate of the invention of formula (IIa) to keratinocytes or melanocytes.\n(§2) The cells (keratinocytes or melanocytes) were cultured in a 96-well plate at 37° C. under 5% CO2 in an appropriate medium until confluence. The medium was withdrawn and then an amount of 200 μL of a 0.5 mg/mL MTT solution was added. The plates were then incubated at 37° C. for 3 hours, after which the MTT solution was withdrawn from each well and replaced with DMSO. The plates were agitated for 15 minutes, and the optical density was measured at 550 nm.\n(§3) The negative cytotoxicity control is PBS. The positive cytotoxicity control is 0.25% SDS. 0.1% DMSO was used as control."}, "[4]": {"test_system": "melanocytes", "assay": "Cytotoxicity, MTT cell viability on melanocytes", "type": "cell-based", "settings": "0.25%, positive cytotoxicity control", "method": "as §1, §2, §3"}, "[5]": {"assay": "TBARS test, lipid peroxidation of UVB-irradiated liposomal suspension", "settings": "for % inhibition of lipid peroxidation: UVB 2 hours", "method": "Study of the radical scavenger activity of the hydroxytyrosol dihydrosinapate of the invention of formula (IIa) and of the prior-art ferulic acid derivative by the TBARS test.\nTwo identical 96-well plates are produced according to a defined plate plan. 50 μL of a sample mixture prepared by diluting a solution of a test compound or of a negative control (vehicle medium without test compound) or of a positive control (D-L-alpha-tocopherol) to 1/10 in a liposomal suspension are distributed per well, in quadruplicate. One of the two plates is irradiated with UVB for 2 hours. The other plate, serving as a control, is incubated in the absence of light and at ambient temperature for 2 hours.\nAt the end of irradiation, an amount of 100 μL of 20% trichloroacetic acid solution was added per well, followed by an amount of 34 μL of 1% thiobarbituric acid solution. The plates are then incubated at 105° C. for 25 minutes.\nThe contents of each well are centrifuged at 5700 rpm for 5 minutes, and then an amount of 100 μL of supernatant was deposited in new plates, according to the same plan, and the absorbance was read off at 530 nm.\nThe positive experimental control was D-L-alpha-tocopherol, at a concentration of 1%, for which a percentage inhibition of 80% was obtained."}, "[6]": {"assay": "DPPH radical scavenger test (acellular)", "settings": "30 minutes", "source_text": "Study of the radical scavenger activity of the hydroxytyrosol dihydrosinapate of the invention of formula (IIa) and of the prior-art ferulic acid derivative in an acellular in vitro model, using DPPH.\n1,1-Diphenyl-2-picrylhydrazyl, owing to its paramagnetic structure, is able to accept an electron or a hydrogen radical in order to become a stable diamagnetic molecule.\nThe addition of a compound which provides electrons gives rise to decoloring of the 1,1-diphenyl-2-picrylhydrazyl in a manner proportional to the number of electrons accepted by the radical, and this decoloration can be monitored by measuring the absorbance at 530 nm (OD530).\n[…] At the end of the incubation, the radical scavenger activity of the compound under test is evaluated by measuring the absorbance of the solution at 530 nm.\nThe results are presented as % inhibition of the DPPH radical, in Table 3a).\nThe radical scavenger activity of the test product is calculated as a percentage, according to the following formula:\n100−((OD530 in the presence of the compound under test/OD530 in the absence of compound)×100)"}, "[7]": {"test_system": "keratinocytes from the A431 line", "assay": "Antiinflammatory activity: release of E2 prostaglandins by UVB-irradiated keratinocytes (ELISA)", "type": "cell-based", "method": "Study of the antiinflammatory activity of the hydroxytyrosol dihydrosinapate of the invention of formula (IIa), by measurement of the inhibition of release of E2 prostaglandins by keratinocytes under the effect of UVB.\nThe keratinocytes from the A431 line are cultured in an appropriate medium at 37° C. for 72 hours under 5% CO2. The culture medium is then withdrawn and replaced with the medium containing the products under test, and also the positive and negative controls. The cells are subsequently irradiated with UV B at 30 mJ/cm2. The cells are incubated for an extra 24 hours at 37° C. under 5% CO2. The cell supernatants are subsequently recovered, and the E2 prostaglandins (PGE2) released are quantified by an ELISA assay.\nAn amount of 100 μL of each sample, control or PGE2 standard is transferred to the wells of a 96-well plate, which are coated with antibodies directed against rat immunoglobulin G (IgG). Then an amount of 25 μL of PGE2-peroxidase conjugate is added to each well, followed by an amount of 25 μL of anti-PGE2 monoclonal antibody. The plate is incubated at 4° C. overnight. The wells are then rinsed and an amount of 100 μL of peroxidase substrate is added. After 15 minutes of incubation at ambient temperature, the optical density is read off at 450 nm. The amount of prostaglandin E2 released after irradiation is deduced from a commercial PGE2 standard range from 0 to 400 pg/mL of PGE2.\nThe negative control, represented by the cells which were not treated with samples and which underwent irradiation by UV B, gave rise to 100% release of PGE2. The positive experimental control is aspirin, which at 0.03% gave rise to 5%+/−2% release of PGE2."}}}
{"smiles": "O=c1cc(CO)occ1O", "note": "[Kojic acid, kojic acid]", "values": [{"measurement": "inhibition at 25 µg/mL", "setting": "[1]; positive control at 0.025 mg/mL, read-out: percentage inhibition of melanin production", "result": 50, "unit": "%"}]}
{"smiles": "OC[C@H]1O[C@@H](Oc2ccc(O)cc2)[C@H](O)[C@@H](O)[C@@H]1O", "note": "[Arbutin, arbutin, reference compound]", "values": [{"measurement": "inhibition at 1000 µM", "setting": "[2]; 1 mM", "result": 65, "unit": "%"}]}
{"smiles": "CCCCCCCCCCCCOS(=O)(=O)[O-].[Na+]", "note": "[SDS, reference compound]", "values": [{"measurement": "Percentage cell viability, Mean", "setting": "[3]", "result": 1.3, "unit": "%"}, {"measurement": "Percentage cell viability, Mean", "setting": "[4]", "result": 0.8, "unit": "%"}]}
{"smiles": "Cc1c(C)c2c(c(C)c1O)CCC(C)(CCCC(C)CCCC(C)CCCC(C)C)O2", "note": "[D-L-alpha-tocopherol]", "values": [{"measurement": "percentage inhibition (lipid peroxidation)", "setting": "[5]; positive control at a concentration of 1%", "result": 80, "unit": "%"}]}
{"smiles": "COc1cc(/C=C/C(=O)NCCc2ccc(O)c(O)c2)ccc1O", "note": "[Prior-art ferulic acid derivative, N-trans-feruloyldopamine, reference compound]", "values": [{"measurement": "inhibition at 10 µM", "setting": "[1]; 10 μM, 72 hours, read-out: % inhibition of melanin +/− standard deviation", "result": 37, "unit": "%"}, {"measurement": "inhibition at 30 µM", "setting": "[1]; 30 μM, 72 hours, read-out: % inhibition of melanin +/− standard deviation", "result": 76, "unit": "%"}, {"measurement": "inhibition at 50 µM", "setting": "[1]; 50 μM, 72 hours, read-out: % inhibition of melanin +/− standard deviation", "result": 88, "unit": "%"}, {"measurement": "inhibition at 1 µM", "setting": "[2]; 1 μM, 24 hours", "result": -9.22, "unit": "%"}, {"measurement": "inhibition at 10 µM", "setting": "[2]; 10 μM, 24 hours", "result": 18.8, "unit": "%"}, {"measurement": "inhibition at 100 µM", "setting": "[2]; 100 μM, 24 hours", "result": 67.8, "unit": "%"}, {"measurement": "% inhibition of the DPPH radical", "setting": "[6]; 1 μM", "result": "6.02 +/− 0.758%"}, {"measurement": "% inhibition of the DPPH radical", "setting": "[6]; 5 μM", "result": "35.02 +/− 1.209%"}, {"measurement": "% inhibition of the DPPH radical", "setting": "[6]; 10 μM", "result": "61.85 +/− 1.35%"}, {"measurement": "% inhibition of the DPPH radical", "setting": "[6]; 30 μM", "result": "89.91 +/− 0.66%"}, {"measurement": "% inhibition of the DPPH radical", "setting": "[6]; 50 μM", "result": "89.91 +/− 0.59%"}, {"measurement": "% inhibition of the DPPH radical", "setting": "[6]; 100 μM", "result": "89.91 +/− 0.66%"}, {"measurement": "% inhibition of the DPPH radical", "setting": "[6]; 1000 μM", "result": "90.99 +/− 0.46%"}, {"measurement": "% inhibition of lipid peroxidation", "setting": "[5]; 1 μM after dilution to 1/10th in the liposomal suspension", "result": "−16.95", "unit": "%"}, {"measurement": "% inhibition of lipid peroxidation", "setting": "[5]; 5 μM after dilution to 1/10th in the liposomal suspension", "result": 6.69, "unit": "%"}, {"measurement": "% inhibition of lipid peroxidation", "setting": "[5]; 30 μM after dilution to 1/10th in the liposomal suspension", "result": 11.77, "unit": "%"}, {"measurement": "% inhibition of lipid peroxidation", "setting": "[5]; 50 μM after dilution to 1/10th in the liposomal suspension", "result": 31.74, "unit": "%"}, {"measurement": "% inhibition of lipid peroxidation", "setting": "[5]; 100 μM after dilution to 1/10th in the liposomal suspension", "result": 64.04, "unit": "%"}, {"measurement": "% inhibition of lipid peroxidation", "setting": "[5]; 1000 μM after dilution to 1/10th in the liposomal suspension", "result": 94.72, "unit": "%"}]}
{"smiles": "CC(=O)Oc1ccccc1C(=O)O", "note": "[aspirin, reference compound]", "values": [{"measurement": "% release of PGE2 after irradiation", "setting": "[7]; A431 keratinocytes, 0.03%, UV B 30 mJ/cm2, positive control", "result": 5, "unit": "%+/−2%"}]}
{"smiles": "COc1cc(CCC(=O)OCCc2ccc(O)c(O)c2)cc(OC)c1O", "values": [{"measurement": "inhibition of prostaglandin E2 release (in words)", "setting": "[7]; keratinocytes, 30 μM, after irradiation with UVB", "result": "greatly inhibited prostaglandin E2 release"}]}
